Results from EP0181578B1, “Antibiotic polypeptide, process for its preparation and its use” (Dr. Karl Thomae GmbH, priority 1984, dated 1991).
Ends that are not written are not given here.

What was measured:
[1] = tested on: Staphylococcus epidermidis DSM 3095; test: Resistance and sensitivity of the producer strain (strain characterisation, adaptation to rising Epidermin concentrations); assay type: cell-based; conditions: for Sonstige Resistenzen: in Flüssigkultur, marked resistance
Excerpt: Der zur Herstellung von Epidermin verwendete Stamm wird nach Schleifer & Kloos (Int. J. Syst. Bact. 25, 50-61 (1975)) wie folgt charakterisiert: Gramfärbung : positiv Zellgröße : Durchmesser 0,5-0,8 µm Koloniengröße : ca. 1 mm Durchmesser Aussehen der Kolonien : glatt, glänzend, in der Mitte leicht erhöht Kolonienfarbe : gräulich - weiß Zellen in Kultur : oft Einzelzellen oder Zweier-Pakete, selten größere Haufen Hämolyse : auf Blutplatten ausgestrichene Kulturen zeigten starke Hämolyse Anaerobes Wachstum : der Stamm wächst auch unter anaeroben Bedingungen Lysozymempfindlichkeit: : die Zellen sind bis 2 mg/ml resistent gegen Lysozym Lysostaphinempfindlichkeit : die Zellen sind schon bei 20 µg/ml sensitiv für Lysostaphin Epidermin-Resistenz : bis 1 mg/ml nachgewiesen Sonstige Resistenzen : in Flüssigkultur zeigt der Stamm eine ausgeprägte Resistenz gegenüber Streptomycin (bis 1 mg/ml) und Spectinomycin (0,5 mg/ml) Erhöhter NaCl-Gehalt : Der Stamm wächst noch gut bis 15% Gew.-% Natriumchlorid.
(§1) Der neue Klon DSM 3095 wurde wie folgt gewonnen: Die Adaption wurde in 100 ml Erlenmeyerkölbchen mit einem seitlichen Einstich und 10 ml Nährlösung (Brain Heart Infusion) durchgeführt. Die Startkultur wurde mit 0,5 ml einer 12 Stunden alten Kultur angeimpft. Für die Kölbchen, die steigende Epidermin-Konzentrationen enthielten, dienten 0,5 ml der jeweils vorangegangenen, gutgewachsenen Kultur als Impfmaterial. Die Beurteilung des Wachstums erfolgte photometrisch bei 578 nm. […] Als Vergleichswert wurde eine unverdünnte 12 Stunden alte Kultur des literaturbekannten Vergleichsstammes NCIB 11536 ausplattiert. Nach 24 Stunden Inkubation bei 37°C zeigten sich bei der auf 10⁻⁶ verdünnten adaptierten Kultur 94 Einzelkolonien. […] Die resistenten Kolonien wurden selektioniert und auf Platten Medium 2 im Raster ausgestrichen. Nach einem Vortest auf Produktion durch Ausstechen von Stückchen mit 5 mm Durchmesser und Aktivitätstest auf Micrococcus luteus ATCC 9341 wurden produzierende Klone im Flüssigmedium getestet.

[2] = Solubility (characterisation data); assay type: physicochemical
Excerpt: (§2) Die neue Verbindung Epidermin kann durch folgende Angaben charakterisert werden: • 1. Natur: farbloses Pulver • 2. […] Methanol/Eisessig, löslich in niederen Alkoholen, unlöslich in Chloroform, Aceton, Diethylether, Petrolether. • 3. Farbreaktion auf Kieselgelplatten: Ninhydrin, Chlor/TDM (TDM=4,4'-Bis-(dimethylamino)diphenylmethan), Orcin/Schwefelsäure, Anisaldehyd/Schwefelsäure. Zerstörungsfreier Nachweis im UV-Licht bei 254 nm und durch Sprühen mit Wasser. • 4. Dünnschichtchromatographie: Es wurden Kieselgelfertigplatten 60 F₂₅₄ (Merck) verwendet. System A: Chloroform/Methanol/17% Ammoniak (2/2/1), RF = 0,73 System B: Chloroform/Methanol/17% Ammoniak (70/35/10) RF = 0,30 System C: n-Butanol/Eisessig/Wasser (4/1/1) RF = 0,05 • 5. HPLC : siehe Abb. 7. • 6. […] Molmasse: im Bereich von 2160. Je nach Isolierungsmethoden können als Anionen, z.B. Chlorid, Acetat oder Phosphat, enthalten sein. • 8. Ultraviolettabsorptionsspektrum: In wässriger Lösung langwelliges Maximum bei 267 nm (Abb. 3). • 9. Infrarotabsorptionsspektrum: IR-Spektrum einer Probe in einer Kaliumbromidtablette (Abb. 4). • 10. Kernmagnetische Resonanzspektren ¹H-NMR Spektrum: Abb. 5, ¹³C-NMR-Spektrum: Abb. 6

[3] = pH stability, retention of antibiotic activity in aqueous solutions of different pH; assay type: physicochemical
Excerpt: as §2
Stabilitätstests und chromatographische Untersuchungen wurden am lyophylisierten Butanolextrakt durchgeführt. Die Inkubation des Extraktes mit wässrigen Lösungen verschiedener pH-Werte ergab ab pH 10 eine starke Abnahme der Aktivität, im Bereich von pH 2-7 ist das Antibiotikum jedoch stabil.

[4] = tested on: Vergleichsstamm NCIB 11536; test: Growth of the comparison strain on plates containing Epidermin; assay type: cell-based, Staphylococcus epidermidis; conditions: undiluted 12 h culture on plates with 0,15 mg/ml Epidermin, 48 Stunden
Description: as §1

[5] = tested on: Staphylococcus epidermidis NCIB 11536; test: Biophotometer test, Epidermin added in different growth phases; assay type: cell-based
Description: (§3) Die Versuche zur Eigenhemmung des Produzentenstammes durch das Antibiotikum und die Untersuchung auf Resistenz der selektionierten Klone wurden im Biophotometer (Eppendorf-Photometer mit Umlaufautomat) durchgeführt.
(§4) Diese Versuche können z.B. im einzelnen wie folgt durchgeführt werden: Jeweils 0,5 ml einer 12 Stunden Kultur von Staphylococcus epidermidis NCIB 11536 bzw. des selektionierten resistenten Stammes DMS 3095 wurden auf frisches Medium überimpft.
(§5) Diese Kulturen ließ man bis zu einer Extinktion von 0,043 bei 578 nm hochwachsen (Küvetten mit einer Schichtdicke von 1 cm) und verteilte sie dann in Portionen zu 7,5 ml in die Küvetten des Biophotometers (Schichtdicke 2 cm).
(§6) Die Dichte der Zellsuspension wurde im Biophotometer auf eine Transmission von 90% eingestellt. Die Inkubation erfolgte bei 37°C und maximaler Belüftung. Epidermin wurde als wässrige Lösung in unterschiedlichen Wachstumsphasen zugegeben.
(§7) Bei beiden Stämmen wurden zu Beginn und in der Mitte der logarithmischen Phase unterschiedliche Epidermin-Konzentrationen zugegeben. Die Ergebnisse sind in Abbildung 13 und 14 dargestellt.

[6] = tested on: resistenter Klon DSM 3095; test: as above; assay type: cell-based, Staphylococcus epidermidis
Description: as §3, §4, §5, §6, §7

[7] = tested on: verschiedener Mikroorganismen; test: Plate diffusion test, spectrum of activity; assay type: cell-based; conditions: for Empfindlichkeit verschiedener Mikroorganismen: Plattendiffusionstest, Tabelle 2
Excerpt: Während der Herstellung und Isolierung des Epidermins wurde zur biologischen Charakterisierung der Plattendiffusionstest angewandt; nämlich zur Aufnahme des Wirkungsspektrums sowie zur Kontrolle von Produktion, Aufarbeitung und Anreicherung. Der Test wurde, wie bei Zähner und Maas, Biology of antibiotics (Springer Verlag, Berlin-Heidelberg-New York, 1972) beschrieben, in Petrischalen der Firma Greiner, Nürtingen mit Filterrondellen von 6 mm Durchmesser (Macherey & Nagel, Düren) durchgeführt. Die Filterrondellen wurden mit 20 µl der betreffenden Testflüssigkeit benetzt, bei Raumtemperatur auf einer Glasplatte getrocknet und auf die Testplatten aufgelegt. Die Testplatten wurden bei 37°C inkubiert und nach ca. 16 Stunden die Wachstumshemmung ausgewertet. Als Routinetestkeim diente Streptococcus pyogenes ATCC 8668 und, aufgrund seiner problemloseren Handhabung, Micrococcus luteus ATCC 9341. Testplatten mit Streptococcus pyogenes ATCC 8668: Der Testkeim mußte vor Herstellung der Testplatten auf Blutplatten mit Mucin [Medium: 500 ml Agar pH 7,4, 160 ml Mucinlösung (10 Gewichtsprozent), 3,5 ml Glucoselösung (50 Gewichtsprozent), 70 ml Hammelblut] frisch überimpft werden. Nach 15-18 Stunden Inkubation bei 37°C wurde eine Salinesuspension (E₅₇₈ 0,5) hergestellt und 1 ml dieser Suspension zu 100 ml Nährboden (Medium: Pepton 10 g, Fleischextrakt 8 g, Kochsalz 3 g, Na₂HPO₄ 2 g, Glucose 10 g auf 1 l, pH 7,2) pipettiert. Die zu 10 ml Portionen gegossenen Platten waren einige Tage bei 4°C haltbar. Testplatten mit Micrococcus luteus ATCC 9341: Eine Übernachtkultur (Medium: Pepton 10 g, Fleischextrakt 8 g, Kochsalz 3 g, Na₂HPO₄ 2 g, Glucose 10 g auf 1 l, pH 7,2) wurde auf eine Extinktion von 1,0 bei 578 nm verdünnt. Mit 0,25 ml dieser Suspension wurden 100 ml Agar angeimpft und Platten zu 10 ml gegossen. Die Testplatten konnten mehrere Tage bei 4°C aufbewahrt werden. […]

[8] = tested on: Propionibakteriumacnes-Stämme; test: Plate diffusion test and minimal inhibitory concentration (Tables 2 and 3); assay type: cell-based, Propionibacterium acnes; conditions: summary of Tabellen 2 und 3
Excerpt: Während der Herstellung und Isolierung des Epidermins wurde zur biologischen Charakterisierung der Plattendiffusionstest angewandt; nämlich zur Aufnahme des Wirkungsspektrums sowie zur Kontrolle von Produktion, Aufarbeitung und Anreicherung. Der Test wurde, wie bei Zähner und Maas, Biology of antibiotics (Springer Verlag, Berlin-Heidelberg-New York, 1972) beschrieben, in Petrischalen der Firma Greiner, Nürtingen mit Filterrondellen von 6 mm Durchmesser (Macherey & Nagel, Düren) durchgeführt. Die Filterrondellen wurden mit 20 µl der betreffenden Testflüssigkeit benetzt, bei Raumtemperatur auf einer Glasplatte getrocknet und auf die Testplatten aufgelegt. Die Testplatten wurden bei 37°C inkubiert und nach ca. 16 Stunden die Wachstumshemmung ausgewertet. Als Routinetestkeim diente Streptococcus pyogenes ATCC 8668 und, aufgrund seiner problemloseren Handhabung, Micrococcus luteus ATCC 9341. Testplatten mit Streptococcus pyogenes ATCC 8668: Der Testkeim mußte vor Herstellung der Testplatten auf Blutplatten mit Mucin [Medium: 500 ml Agar pH 7,4, 160 ml Mucinlösung (10 Gewichtsprozent), 3,5 ml Glucoselösung (50 Gewichtsprozent), 70 ml Hammelblut] frisch überimpft werden. […]

Zellen = test: Mode of action (bactericidal, lysis of cells); assay type: cell-based; conditions: leads to lysis of the cells; same as the culture broth
[9] = in vivo

[H]/N=C(/N)N[C@H]1[C@H](O)[C@@H](O)[C@H](O[C@@H]2O[C@@H](C)[C@](O)(C=O)[C@H]2O[C@@H]2O[C@@H](CO)[C@H](O)[C@@H](O)[C@@H]2NC)[C@@H](N/C(N)=N\[H])[C@@H]1O [Streptomycin]
Sonstige Resistenzen [1]: ≤ 1 mg/mL

Epidermin: ribosomal synthetisiertes, heterodet tetracyclisches Dokosapeptidantibiotikum aus Staphylococcus epidermidis DSM 3095 (IASKFICTPGCAKTGSFNSYCC; also: heterodetic tetracyclic lantibiotic, rings and modified residues not placed; UniProt P08136 31-52, looked up)
Löslichkeit ([2]; in Chloroform, Aceton, Diethylether, Petrolether): unlöslich
Löslichkeit ([2]; in Mischungen aus Wasser/Eisessig bzw. Methanol/Eisessig): Sehr gut löslich
Löslichkeit ([2]; in niederen Alkoholen): löslich
Stabilität ([3]; bei höheren pH-Werten (above pH 7)): starker Aktivitätsabfall
Stabilität ([3]; pH=2 bis pH=7): Stabil
Stabilität ([3]; tested on lyophilised butanol extract, pH 2-7): stabil
Einzelkolonien ([1]; adapted culture diluted to 10⁻⁶, plate with 0,5 mg/ml Epidermin, 24 Stunden 37°C): 94
Wachstum ([1]; adapted culture, 1,0 mg/ml Epidermin in Flüssigkultur): noch gut gewachsen
Resistenz ([1]; against the Epidermin it produces itself): resistent
Epidermin-Resistenz ([1]; resistance shown up to this concentration): ≤ 1 mg/mL
Wachstum [4]: wuchs auch nach 48 Stunden Inkubation nicht
Wachstumsverlauf ([5]; Abb. 13 Kurve 2: 10 µg/ml zu Beginn der logarithmischen Phase): Lyse
Wachstumsverlauf ([5]; Abb. 13 Kurve 3: 10 µg/ml in der Mitte der logarithmischen Phase): Lyse
Wachstumsverlauf ([5]; Abb. 13 Kurve 4: 2,5 µg/ml in der Mitte der logarithmischen Phase): Wachstumsverzögerung
Wachstumsverlauf ([6]; Abb. 14 Kurve 2: 120 µg/ml zu Beginn der logarithmischen Phase): geringfügige Wachstumsverzögerung
Wachstumsverlauf ([6]; Abb. 14 Kurve 3: 360 µg/ml in der Mitte der logarithmischen Phase): Wachstumsverzögerung
Lyse ([6]; all concentrations tested so far): keine Lyse
Empfindlichkeit verschiedener Mikroorganismen [7]: fast ausschließlich auf grampositive Bakterien wirken
antibakterielle Wirksamkeit ([7]; especially good against a whole series of gram-positive bacteria): sehr gute antibakterielle Wirksamkeit
Wirksamkeit [8]: sehr gute Wirksamkeit
Wirkung (Zellen): bakterizide Wirkung
Verträglichkeit [9]: sehr gut verträglich
toxische Wirkungen [9]: keine toxischen Wirkungen

CN[C@@H]1[C@H](O)[C@H](NC)[C@H]2O[C@@]3(O)C(=O)C[C@@H](C)O[C@H]3O[C@@H]2[C@H]1O [Spectinomycin]
Sonstige Resistenzen [1]: 0,5 mg/ml

Nisin (ITSISLCTPGCKTGALMGCNMKTATCHCSIHVSK; also: lantibiotic: thioether rings and dehydro residues, not placed; UniProt P13068 24-57, looked up) [Vergleichsantibiotikum (vgl. DE-A-2 000 818 bzw. GB-B-1 182 156), Aktivität von 40000 units, reference compound]
Empfindlichkeit verschiedener Mikroorganismen ([7]; Nisin mit einer Aktivität von 40000 units): fast ausschließlich auf grampositive Bakterien wirken
